Test results from US20250263439A1, “HETERODIMERIC PEPTIDE REAGENTS AND METHODS” (REGENTS OF THE UNIVERSITY OF MICHIGAN, priority 2018, published 2025).
Where “and” joins values, the source holds several entries; their conditions need not be identical. Equal values may be shown once. Entries after “also recorded” stand apart in the source; their conditions may differ.

Tests used:
[1] = tested on: EGFR or ErbB2 in SKBr3 cells; test: siRNA knockdown of EGFR or ErbB2 in SKBr3 cells, confocal binding; format: cell-based, human
Method: siRNA knockdown experiments were performed to further validate specific heterodimer binding to either EGFR or ErbB2 in vitro. Separate siRNA knockdown of either EGFR or ErbB2 expression in SkBr3 cells was carried out to validate specific peptide binding. ON-TARGET plus human EGFR siRNA (#L-003114-00-0005), ONTARGET plus human ErbB2 siRNA (#L-003126-00-0005) and ON-TARGET plus non-targeting pool (#D-001810-10-05) were used.
siRNA at 5 μM concentration in 5 μL was transfected into SKBr3 cells using DharmaFECT transfection reagents (Thermo Scientific). Briefly, cells were seeded in 6-well culture plates at 30% confluence in McCoy's 5 Å media supplemented with 10% FBS without antibiotics. The cells were transfected with siRNA at a final concentration of […] using oligofectamine (Thermo Scientific). Knockdown of either EGFR or ErbB2 was confirmed by Western blot.

[2] = tested on: EGFR and ErbB2 mediated signaling; test: Effect on downstream cell signaling in SKBr3 cells (Western blot); format: cell-based, human; details: heterodimer at 1, 5, and 20 μM
Method: The effect of heterodimer binding on downstream signaling was evaluated in SKBr3 cells. SKBr3 cells were seeded in 6-well flat-bottom plates. […] EGF (#E9644, Sigma) was reconstituted to 1 mg/mL using 10 mM acetic acid, diluted with 0.1% BSA, and added to SKBr3 cells at a concentration of 100 ng/mL. Lapatinib (CDS022971, Sigma) was diluted to 100 nM in DMSO and PBS from 1 mg/mL stock solution, and was added to the cells incubated with heterodimer at concentrations of 1, 5, and 20 μM in separate wells.

OE33 xenograft tumors [3] = test: In vivo NIR fluorescence imaging of OE33 xenograft tumors (Cy5.5); design: species or system nude mice
Method: Optical imaging was performed in nude mice bearing xenograft tumors in vivo to characterize pharmacokinetics and assess toxicity. All experimental procedures were performed in accordance with relevant guidelines and regulations of the University of Michigan, and all animal studies were conducted with approval by the University Committee on the Use and Care of Animals (UCUCA). Animals were housed per guidelines of the Unit for Laboratory Animal Medicine (ULAM).
Female athymic nude mice (002019 Foxn1, Jackson Laboratories) were obtained at 4-5 weeks of age, and were housed with four animals per cage and fed with sterilized pellet chow and water. Mice were anesthetized in an isoflurane chamber, and OE33 xenograft tumors were generated by subcutaneous injection of about 5×10^7 tumor cells suspended in […] of sterile PBS in the hind limb flank. Mice were studied at about 3-4 weeks post-inoculation when the tumor volume reached about 0.5-0.8 cm in size.
In vivo fluorescence images were collected using the Xenogen IVIS™ 200 small animal imaging system. Fluorescence intensities were measured and normalized. […] Images were collected prior to peptide injection to assess baseline auto-fluorescence values and then at various time points post-injection up to 24 hours, FIG. 5A. Fluorescence images were excited at λex=675 nm, and emission was collected at λem=740 nm with 5 sec exposure (f/stop=8).

SKBr3 cells = test: Heterodimer internalization in SKBr3 cells over time (confocal); format: cell-based, human
Method: Using confocal microscopy, images were collected over time to evaluate heterodimer internalization. […] Binding by anti-EGFR-AF568 (yellow) and anti-ErbB2-AF488 (green) to the surface (arrows) of the same cells is shown for comparison. On the merged images, a Pearson's correlation coefficient was measured for the heterodimer with the anti-EGFR antibody (ρ=0.77) and the anti-ErbB2 (ρ=0.65) antibody. […] The DAPI images highlight the location of cell nuclei prior to heterodimer incubation, FIG. 3B. Binding of QRH*-KSP*-E3-Cy5.5 (red) to the cell surface is seen at […]. The heterodimer starts to internalize at 4 min, and complete internalization is seen at 40 min.

OE33 xenograft tumors [4] = test: In vivo competition with unlabeled peptide monomers; design: species or system mice; details: two hours after heterodimer injection
Method: In vivo heterodimer specificity was assessed by competition with 3000 μM of unlabeled peptide monomer or a mixture of two monomers diluted in 50 μL of PBS injected 20 min beforehand in tumor-bearing mice (n=4 per group). Blocking studies were carried out by injecting unlabeled QRH*, KSP*, and both monomers together to validate in vivo specificity. Images were collected at two hours after heterodimer injection when peak uptake was expected. The ratio of fluorescence intensity in tumor was calculated using regions of interest (ROI), and the results were presented as mean±standard deviation (SD).

[5] = tested on: EGFR and/or ErbB2 in SKBr3 cells; test: Co-localization of Cy5.5 heterodimer with anti-EGFR and anti-ErbB2 antibodies on SKBr3 cells; format: cell-based, human; details: confocal microscopy
Method: Co-localization experiments were performed to validate specific heterodimer binding to EGFR and/or ErbB2 in SKBr3 cells. Cells were cultured to about 70% confluence on glass coverslips, washed with PBS, and incubated with 2% BSA in PBS for 30 min to block non-specific binding. 1 μM of Cy5.5-labeled peptides were added and incubated for 30 min or 1 hour at 4° C. The cells were then washed 3× with PBS, fixed with ice cold 4% paraformaldehyde (PFA) for 10 min, washed with PBS 1×, and then mounted on glass slides with ProLong Gold reagent containing DAPI (Invitrogen).
For antibody staining, cells were incubated with either anti-EGFR (1:500, #2232S) or anti-ErbB2 (1:500, #29D8) primary antibody from Cell Signaling Inc overnight at 4° C. after fixation, and then washed with PBS 3× and processed with secondary antibody staining. Either goat anti-rabbit IgG (H+L) labeled with Alexa-Fluor 488 (1:1000, #A-11008, Invitrogen) or goat anti-mouse IgG (H&L) labeled with Alexa-Fluor 568 (1:1000, #ab175473, Abcam) was added and incubated for 1 hour at room temperature (RT). The cells were washed with PBS 3×, and mounted onto glass coverslips. Confocal fluorescence images were collected using DAPI, AF488, AF568 and Cy5.5 filter sets. Fluorescence intensities from 3 independent images were quantified using custom Matlab (Mathworks) software.

heterodimer of QRHKPRE (SEQ ID NO: 1) and KSPNPRF (SEQ ID NO: 2) with E3 (triethyleneglycol) linker, Cy5.5 label [QRH*-KSP*-E3-Cy5.5]
binding to siCL (control) versus siEGFR (knockdown) SKBr3 cells ([1]; confocal microscopy, similar results for siErbB2): Less signal; also recorded: significantly greater binding | binding to surface of siCL (control) SKBr3 cells ([1]; non-targeting siRNA): strong binding | mean fluorescence intensity in EGFR or ErbB2 knockdown cells ([1]; quantified, versus control SKBr3 cells): significant reduction | phosphorylation of EGFR (p-EGFR) and ErbB2 (p-ErbB2) [2]: no change | phosphorylation of downstream AKT (p-AKT) and ERK (p-ERK) [2]: no downstream change | peak mean tumor signal versus control peptide (OE33 xenograft tumors [3]; about 2 hours after intravenous injection, n=6): significantly greater | time of return of signal to baseline / systemic clearance (OE33 xenograft tumors [3]; intravenous, OE33 xenograft): about 24 hours | time at which heterodimer starts to internalize (SKBr3 cells): 4 min and 8 to 20 min | time of complete internalization / strong signal inside cells (SKBr3 cells): 40 min | tumor signal after prior injection of unlabeled QRH*, KSP*, or both (OE33 xenograft tumors [4]): reduction of signal | binding to surface of SKBr3 cells [5]: bind strongly
